The values that follow come from patent publication US20260053931A1, “MDM2 TARGETING PROTACS” (THE WISTAR INSTITUTE OF ANATOMY AND BIOLOGY, priority 2023, published 2026).

Entries after “also recorded” stand apart in the source; their conditions may differ. Like-named read-outs stand apart in the source and are kept apart here.

In data set [1] the target is T1, Mdm2 (Homo sapiens, UniProt Q00987). The experiment in a line: Mdm2 HTRF binding assay (Table 2). The source says:
An HTRF binding assay was developed using a biotinylated peptide containing the Mdm2-binding domain of p53 and a recombinant GST-tagged N-terminus of Mdm2 containing the p53-binding domain. HTRF is a proximity-based fluorescence energy transfer (FRET) assay that takes advantage of the unique time-resolved fluorescence of the lanthanide chelates, such as terbium and europium. HTRF IC50 values are provided for all key compounds (FIG. 13C, FIG. 19B, and Table 2).
Target sequence in this assay (Q00987 26-109 limits assumed): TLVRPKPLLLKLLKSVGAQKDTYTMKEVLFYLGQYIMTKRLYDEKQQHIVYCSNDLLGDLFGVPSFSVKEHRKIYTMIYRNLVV
A general note: TR-FRET usually uses a lanthanide donor and a delayed reading to cut background.

The target in data set [2] is T2, human cereblon (CRBN) complex (Homo sapiens, UniProt Q96SW2).
T2 construct: purchased R & D systems
T2 sequence (Q96SW2 whole entry): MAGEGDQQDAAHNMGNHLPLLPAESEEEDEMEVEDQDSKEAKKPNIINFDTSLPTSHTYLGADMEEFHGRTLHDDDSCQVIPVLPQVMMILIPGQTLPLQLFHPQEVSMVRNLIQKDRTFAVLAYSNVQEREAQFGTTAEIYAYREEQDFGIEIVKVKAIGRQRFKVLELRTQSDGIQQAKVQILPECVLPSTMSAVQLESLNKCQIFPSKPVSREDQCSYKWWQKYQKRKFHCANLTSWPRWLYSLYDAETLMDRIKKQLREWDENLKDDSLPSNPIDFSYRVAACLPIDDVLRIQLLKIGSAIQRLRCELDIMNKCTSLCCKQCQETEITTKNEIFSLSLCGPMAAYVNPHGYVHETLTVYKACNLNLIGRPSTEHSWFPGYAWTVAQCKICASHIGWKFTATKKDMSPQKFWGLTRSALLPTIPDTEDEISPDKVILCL
T2 sequence (Q16531 whole entry partner): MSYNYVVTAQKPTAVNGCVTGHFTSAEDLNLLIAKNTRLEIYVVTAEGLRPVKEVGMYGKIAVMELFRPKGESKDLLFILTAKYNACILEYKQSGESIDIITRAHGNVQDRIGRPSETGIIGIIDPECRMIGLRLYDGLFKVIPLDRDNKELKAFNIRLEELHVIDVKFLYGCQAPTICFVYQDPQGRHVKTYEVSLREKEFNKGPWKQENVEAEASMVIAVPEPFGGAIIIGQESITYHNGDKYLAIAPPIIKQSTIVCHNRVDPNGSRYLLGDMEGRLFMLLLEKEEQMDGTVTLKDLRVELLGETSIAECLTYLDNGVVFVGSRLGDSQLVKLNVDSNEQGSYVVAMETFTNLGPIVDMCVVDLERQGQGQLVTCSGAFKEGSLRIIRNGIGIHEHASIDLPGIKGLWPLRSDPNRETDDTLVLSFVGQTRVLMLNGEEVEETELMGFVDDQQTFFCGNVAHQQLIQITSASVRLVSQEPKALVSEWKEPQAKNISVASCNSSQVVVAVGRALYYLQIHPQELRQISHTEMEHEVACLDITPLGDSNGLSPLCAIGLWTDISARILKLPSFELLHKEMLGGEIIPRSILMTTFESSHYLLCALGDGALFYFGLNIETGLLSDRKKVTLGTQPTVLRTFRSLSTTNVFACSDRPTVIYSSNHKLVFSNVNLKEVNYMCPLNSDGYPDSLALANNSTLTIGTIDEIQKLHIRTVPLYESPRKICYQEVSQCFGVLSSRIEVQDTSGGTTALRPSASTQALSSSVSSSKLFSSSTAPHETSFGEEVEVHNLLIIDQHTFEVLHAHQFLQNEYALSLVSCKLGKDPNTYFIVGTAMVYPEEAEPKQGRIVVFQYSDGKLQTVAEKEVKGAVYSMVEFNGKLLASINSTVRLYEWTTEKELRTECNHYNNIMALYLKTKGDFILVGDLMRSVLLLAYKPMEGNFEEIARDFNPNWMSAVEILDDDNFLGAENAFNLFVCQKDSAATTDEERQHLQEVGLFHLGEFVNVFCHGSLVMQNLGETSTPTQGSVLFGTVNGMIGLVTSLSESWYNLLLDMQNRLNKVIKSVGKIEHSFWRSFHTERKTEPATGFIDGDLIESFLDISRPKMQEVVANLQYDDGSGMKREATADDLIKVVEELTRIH
T2 sequence (Q13619 whole entry partner): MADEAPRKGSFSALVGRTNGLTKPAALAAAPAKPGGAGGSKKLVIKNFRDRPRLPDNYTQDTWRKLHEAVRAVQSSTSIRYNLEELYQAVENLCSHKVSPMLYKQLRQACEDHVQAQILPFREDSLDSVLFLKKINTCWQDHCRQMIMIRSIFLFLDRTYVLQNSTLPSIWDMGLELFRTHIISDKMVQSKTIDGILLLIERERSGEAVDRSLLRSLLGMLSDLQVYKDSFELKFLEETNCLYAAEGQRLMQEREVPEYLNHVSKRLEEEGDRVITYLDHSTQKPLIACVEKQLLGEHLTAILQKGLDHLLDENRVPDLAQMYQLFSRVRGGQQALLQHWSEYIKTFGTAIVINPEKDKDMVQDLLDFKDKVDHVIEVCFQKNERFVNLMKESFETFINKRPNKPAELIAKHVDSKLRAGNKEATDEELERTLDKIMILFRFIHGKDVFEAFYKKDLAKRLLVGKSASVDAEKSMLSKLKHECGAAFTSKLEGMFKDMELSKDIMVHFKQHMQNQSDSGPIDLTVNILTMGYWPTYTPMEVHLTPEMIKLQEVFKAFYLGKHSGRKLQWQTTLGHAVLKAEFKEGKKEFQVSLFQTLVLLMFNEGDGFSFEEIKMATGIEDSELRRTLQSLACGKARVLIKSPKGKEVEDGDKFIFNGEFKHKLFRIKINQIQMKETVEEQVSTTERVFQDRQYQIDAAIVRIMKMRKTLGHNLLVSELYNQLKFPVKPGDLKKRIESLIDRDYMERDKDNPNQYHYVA
T2 sequence (P62877 whole entry partner): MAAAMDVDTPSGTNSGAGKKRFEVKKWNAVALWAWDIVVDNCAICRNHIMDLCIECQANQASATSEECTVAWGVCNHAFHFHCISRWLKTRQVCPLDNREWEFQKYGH
The experiment in a line: HTRF binding assay for Cereblon (Table 2). An excerpt: Biochemical assays in 384-well format have established to assess the binding of newly synthesized PROTACs to the appropriate E3 ligase using HTRF technology. In these assays an anti-HIS antibody conjugated to terbium was used as the donor fluor, and either a Cy5 labeled small molecule probe, or a biotinylated peptide that is bound to a streptavidin acceptor.
Cereblon: Recombinant human cereblon (CRBN) complex, including CUL4A, RBX1, DDB1 and CRBN is purchased from R & D systems. This four-member protein complex has an N-terminal HIS tag on the CUL4A subunit. The CRBN complex is diluted in assay buffer containing anti-HIS-Tb Cryptate Gold (CisBio) and is added to low volume 384-well plates. Test compounds in 100% DMSO are added to the plates followed by the Cy5-labeled lenolidamide probe. After 1 hour the HTRF signal is measured on the Envision. Data are normalized to % inhibition. The typical signal-to-noise is 5:1. Bi-functional molecules containing the Cereblon ligands are tested in TABLE 2 (see YX-02-041).

The nature of data set [3]: Mouse pharmacokinetic study, intraperitoneal. The format is in vivo. The following applies: single 10 mg/kg intraperitoneal dose, 0.25-6 h. The protocol:
To translate cell-based activity to in vivo efficacy, the Mdm2 PROTACs were evaluated for metabolic stability and plasma compound levels after IP injection in the mouse. Mouse liver microsome stability was obtained for lead compounds (Alliance Pharma, Inc; Malvern PA) as a predictive measure for suitable exposure in a mouse pharmacokinetic study. In brief, test compounds (0.5 μM) are incubated with liver microsomes ([…]) and an NADPH-regenerating system (cofactor solution) and samples are taken at various timepoints, quenched with an acetonitrile solution containing an internal standard, then analyzed by LC-MS/MS. […] Mouse pharmacokinetic studies for YX-02-030 and YX-02-288 were completed. Mouse plasma levels were evaluated following intraperitoneal (10 mg/kg) administration. Plasma was collected at timepoints 0.25 h, 0.5 h, 1 h, 2 h, 4 h and 6 h after Mdm2 PROTAC injection. Plasma was deproteinized and analyzed for compound using LC-MS/MS methods. Three mice were used for each time point and one control animal (Alliance Pharma Inc, Malvern PA).

Data set [4] is described as follows: In vivo tolerability, nude mice. Set-up: species or system mouse. The following applies: YX-02-030 50 mg/kg IP, YX-02-228 30 mg/kg IP, once daily. The protocol:
FIGS. 25A & 25B show the in vivo tolerability tests conducted with the 2 lead Mdm2 PROTACs to evaluate tolerated doses and effects on normal tissues. Nude mice were treated with Mdm2 PROTACs, YX-02-030 (50 mg/kg; IP) and YX-02-228 (30 mg/kg; IP) once daily for 14 days. […] Fresh, surgically-resected tumor from five TNBC patients was obtained, and 80% were from Black/African American patients.
In vivo tolerability tests were conducted with the 2 lead Mdm2 PROTACs to evaluate tolerated doses and effects on normal tissues. Nude mice were treated with Mdm2 PROTACs, YX-02-030 (50 mg/kg; IP) and YX-02-228 (30 mg/kg; IP) once daily for 8 days.

The subject of another data set is Raji. The data set is described as follows: Cell death of other cancer cell lines: Raji. It is filed as cell-based. The following applies: Homo sapiens, Burkitt lymphoma, values may change up to ±1-2 μM depending on the cell density. The protocol:
(§1) The PROTACs prepared herein were tested for their use in other cancer cell lines to determine activity in multiple different types of cancer.

A further data set deals with SU-DHL-8. The data set is described as follows: Cell death of other cancer cell lines: SU-DHL-8. It is filed as cell-based. The following applies: Homo sapiens; SU-DHL-8, Diffuse large B cell lymphoma. The protocol:
as §1

The test system of a further data set is HH. The data set is described as follows: Cell death of other cancer cell lines: HH. The format is cell-based. The following applies: Homo sapiens, T cell lymphoma. The protocol:
as §1

In another data set the test system is SEM cells. The experiment in a line: Cell death of other cancer cell lines: SEM. The following applies: Homo sapiens, B-ALL. The format is cell-based. The protocol:
as §1

Another data set relates to RS4; 11. The experiment in a line: Cell death of other cancer cell lines: RS4; 11. It is filed as cell-based. The following applies: Homo sapiens, 11, B-ALL. The protocol:
as §1

The next data set has as its system SUP-T1. The experiment in a line: Cell death of other cancer cell lines: SUP-T1. It is filed as cell-based. The following applies: Homo sapiens; SUP-T1, T-ALL. The protocol: as §1
The next data set relates to H1299. The experiment in a line: Cell death of other cancer cell lines: H1299. It is filed as cell-based. The following applies: Homo sapiens, NCI-H1299; H1299, Lung adenocarcinoma. The protocol: as §1
A further data set concerns PC9. The data set is described as follows: Cell death of other cancer cell lines: PC9. It is filed as cell-based. The following applies: Homo sapiens, PC-9; PC9, Lung adenocarcinoma. The protocol:
as §1

Another data set relates to OVCAR4. The data set is described as follows: Cell death of other cancer cell lines: OVCAR4. It is filed as cell-based. The following applies: Homo sapiens, OVCAR-4; OVCAR4, Ovarian. The protocol:
as §1

In data set [5] the target is T1, Mdm2. The data set is described as follows: In-Cell Western, mut p53 MDA-MB-231 cell line. It is filed as cell-based. More on the design: endogenous in cells; host or cells: MCF7 (A8); MDA-MB-231 (A9). The following applies: mutant p53 MDA-MB-231. The protocol:
Cells were seeded at decreasing cell number from 15K cells to 2K cells. The Mdm2 primary antibody was tested at 1:200 and 1:300 dilution. The secondary antibody conjugated to IRDye800CW was used with 1:800 dilution, and CellTag 700 Stain was used at 1:1000 dilution as manufacture recommended. The linearity of cell number versus signal was generated with Prism. The signal over background ratio was also calculated.
The potential PROTACs were evaluated in the wt p53 MCF7 cell line and in the mut p53 MDA-MB-231 cell line. Importantly these were compared to MD-224, which was recently reported to potently degrade Mdm2 in RS4; 11 leukemia cells (Li et al., 2019). Assay linearity was performed confirming a strong 4-fold signal to noise in the assay. A series of bi-functional molecules were then treated and evaluated for protein level in the assay over time from 2 h-48 h. […] In this wt p53 cancer cell line the stabilization of p53 (FIG. 15B), and subsequent p53-mediated transcriptional upregulation of Mdm2 make it difficult to observe degradation. […] These compounds were evaluated in the mutant p53 cancer cells. […] In this cell line, it takes approximately 16-24 h to detect the degradation. […] The difference in the molecules is that MD-224 utilizes a CRBN recruiting ligand.
Target sequence in this assay (Q00987 whole entry, the tested form may be a part): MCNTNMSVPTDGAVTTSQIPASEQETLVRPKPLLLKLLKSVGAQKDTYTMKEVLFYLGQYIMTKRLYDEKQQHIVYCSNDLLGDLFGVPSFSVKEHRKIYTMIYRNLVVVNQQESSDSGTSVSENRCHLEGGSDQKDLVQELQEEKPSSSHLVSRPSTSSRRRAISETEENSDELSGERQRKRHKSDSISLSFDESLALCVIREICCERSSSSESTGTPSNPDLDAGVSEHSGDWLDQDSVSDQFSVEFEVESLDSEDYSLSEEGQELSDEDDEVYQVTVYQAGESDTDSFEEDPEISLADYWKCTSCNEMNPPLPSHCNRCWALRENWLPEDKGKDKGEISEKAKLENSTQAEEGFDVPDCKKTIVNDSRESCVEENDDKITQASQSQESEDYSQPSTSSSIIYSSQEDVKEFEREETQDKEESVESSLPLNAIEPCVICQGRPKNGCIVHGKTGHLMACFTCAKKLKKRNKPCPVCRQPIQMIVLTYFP

Usually IC50 stands for the midpoint of a concentration-inhibition curve. As for `CCOc1cc(C(C)(C)C)ccc1C1=N[C@](C)(c2ccc(Cl)cc2)[C@](C)(c2ccc(Cl)cc2)N1C(=O)N1CCN(CC(=O)NCCCNC(=O)COc2ccc3c(c2)CN(C(=O)[C@H](NC(=O)[C@@H](C)NC)C(C)(C)C)[C@@H](C(=O)N[C@H]2CCCc4ccccc42)C3)CC1` [YX-02-228, (R)-7-(2-((3-(2-(4-((4R,5S)-2-(4-(tert-butyl)-2-ethoxyphenyl)-4,5-bis(4-chlorophenyl)-4,5-dimethyl-4,5-dihydro-1H-imidazole-1-carbonyl)piperazin-1-yl)acetamido)propyl)amino)-2-oxoethoxy)-2-((R)-3,3-dimethyl-2-((R)-2-(methylamino)propanamido)butanoyl)-N-((S)-1,2,3,4-tetrahydronaphthalen-1-yl)-1,2,3,4-tetrahydroisoquinoline-3-carboxamide], the IC50 is 0.013 µM at Mdm2 [1] (read-out: Mdm2 HTRF IC50); greater than 10 µM in data set [2]; 5.9 µM in the data set on Raji; 4.6 µM in the data set on SU-DHL-8; 5.5 µM with HH; 4.2 µM with SEM cells. Also, the half-inhibitory concentration (IC50) worked out at 2.5 µM in the data set with RS4; 11; 6 µM in the data set with SUP-T1; 5.3 µM in the data set on H1299; 4.6 µM in the data set with PC9; 4.8 µM with OVCAR4. The “in vivo plasma levels” value in data set [3] is on record as “prolonged in vivo plasma exposure”. Further, in data set [4], the blood counts entry is given as “no significant change”. Moreover, in data set [4], the body weight result is given as “no significant change in body weight”. Further, the “clinical observations for spleen and bone marrow” value in data set [4] is listed as “no adverse clinical observations”. Also, the Mdm2 degradation result on Mdm2 [5] is “degrade Mdm2”.
Regarding `CCOc1cc(C(C)(C)C)ccc1C1=N[C@](C)(c2ccc(Cl)cc2)[C@](C)(c2ccc(Cl)cc2)N1C(=O)N1CCN(CC(=O)NCCOCCOCCOCC(=O)N[C@H](C(=O)N2C[C@H](O)C[C@H]2C(=O)NCc2ccc(-c3scnc3C)cc2)C(C)(C)C)CC1` (racemic) [YX-02-030], the IC50 at Mdm2 [1] was 0.014 µM; in data set [2] it was greater than 10 µM; in the data set with Raji it was 2.8 µM; with SU-DHL-8, 1.9 µM; in the data set on HH, 6.3 µM; with SEM cells, 3.2 µM. Besides, the IC50 with RS4; 11 was 1.9 µM; in the data set with SUP-T1, 5.7 µM; in the data set with H1299 it was 4.2 µM; in the data set on PC9 it was 4.5 µM; in the data set on OVCAR4, 4.6 µM. For the same compound, the “in vivo plasma levels” value in data set [3] (10 mg/kg) is “prolonged in vivo plasma exposure; also recorded: plasma levels stable over 6 hours”. In addition, in data set [4], the blood counts result was “no significant change”. In addition, in data set [4], the body weight entry is “no significant change in body weight”. In addition, the “clinical observations for spleen and bone marrow” value in data set [4] was “no adverse clinical observations”. In addition, the Mdm2 degradation result on Mdm2 [5] is “degrade Mdm2”.
